Where two headings read alike, the source gives them in different places.
Assays:
mouse cGAS = target: T1, mouse cGAS (Mus musculus, UniProt Q8C6L5); assay: RapidFire mass spectrometry (RF-MS) cGAS enzymatic assay, cGAMP product formation; assay type: biochemical; details: for inhibition at 12.5 µM: read-out: % inhibition at 12.5 µM
T1 construct: recombinant full-length mouse cGAS in reaction buffer; His6-SUMO (N, cleaved yes); made in house; host or cells: E. coli BL21(DE3) RIL
Procedure: The liquid was collected at the well bottom using centrifugation for 30 s at 180×g. […] Plates were centrifuged for 30 s at 180×g to collect all liquid at the bottom of the wells. […] The reaction was stopped by addition of 65 µl of 0.5% (v/v) formic acid per well. The plates were centrifuged for 30 s at 180×g and sealed with a Velocity11 PlateLoc thermal plate sealer.
The solvent used for loading/washing process was an aqueous solution of 5 mM ammonium acetate, pH 10. […] Each sample of approximately 35 µl were aspirated from a 384-well plate and separated using a Graphitic carbon Type D cartridge. After each sample was loaded onto the cartridge it was washed for 4 s at 1.5 ml min^−1 using the aqueous solvent. ATP, GTP and cGAMP were eluted for 5 s using the organic solvent at a flow rate of 1.5 ml min^−1. The cartridge was then re-equilibrated with the aqueous solvent for 5 s at a flow rate of 1.5 ml min^−1. All samples were analyzed using a negative ionization mode in the mass spectrometer, with a gas temperature of 350 °C, nebulizer pressure of 35 psig, gas flow rate of 15 l min^−1. […] The Agilent RapidFire Integrator software was used to calculate the area under the curve (AUC) of the extracted ion counts for each analyte. Data points represent values of product formation. Catalytic rates expressed as percent product formation were calculated using the AUC of cGAMP and using the AUC’s of ATP and GTP to normalize for variations in the capacity of the solid phase extraction column during a screening run, as shown in the following formula: product formation (%) = [(AUCcGAMP × 100)/(AUCcGAMP + ½ AUCATP + ½ AUCGTP)].
To determine the percent inhibition of mouse cGAS the data was normalized against the positive control (column 24) and negative control (column 23). […] The quality of the screen was assessed by Z′ factor[57] calculated as follows: Z′ = 1−[3∗(standard deviation positive control + standard deviation negative control)/(average positive control—average negative control)].

45-bp dsDNA = assay: DNA intercalation: acridine orange displacement from dsDNA by fluorescence polarization; assay type: binding; details: Supplementary Table 2; for % intercalation at 30 µM: acridine orange displacement compared to mitoxantrone; for Polarization: compound 30 µM
Procedure: Ten microliters of HEN buffer (10 mM HEPES pH 7.5, 1 mM EDTA pH 7.5, 100 mM NaCl) were dispensed per well using a Thermo Multidrop Combi dispenser (Thermo Scientific). The liquid was collected at the well bottom using centrifugation for 30 s at 180×g. […] The final concentration of compounds in the assay was 30 µM. […] The liquid was collected at the well bottom using centrifugation for 30 s at 180×g. […] The liquid was collected at the well bottom using centrifugation for 30 s at 180 × g and the plates were incubated for 30 min. Mitoxantrone, a known DNA intercalator was used at 50 µM as a positive control, while DMSO alone was used as negative control. FP was measured using a Biotek Synergy Neo plate reader. […] All FP values are expressed in millipolarization (mP) units. The mP values were calculated using the equation mP = 1000 × [(I S−I SB)−(I P−I PB)]/[I S—I SB) + (I P−I PB)], where I S and […] to the parallel and perpendicular emission intensity, respectively, and I SB and I SP corresponds to parallel emission intensity perpendicular emission intensity of the buffer, respectively. The experimental G-factor, defined as G = I S/I P, was set to 1.0 in all experiments.

[1] = Supplementary Table 2, batch of compounds stored in the screening library, read-out: IC50
[2] = Supplementary Table 2, compound 12.5 µM

T1 sequence (Q8C6L5 whole entry): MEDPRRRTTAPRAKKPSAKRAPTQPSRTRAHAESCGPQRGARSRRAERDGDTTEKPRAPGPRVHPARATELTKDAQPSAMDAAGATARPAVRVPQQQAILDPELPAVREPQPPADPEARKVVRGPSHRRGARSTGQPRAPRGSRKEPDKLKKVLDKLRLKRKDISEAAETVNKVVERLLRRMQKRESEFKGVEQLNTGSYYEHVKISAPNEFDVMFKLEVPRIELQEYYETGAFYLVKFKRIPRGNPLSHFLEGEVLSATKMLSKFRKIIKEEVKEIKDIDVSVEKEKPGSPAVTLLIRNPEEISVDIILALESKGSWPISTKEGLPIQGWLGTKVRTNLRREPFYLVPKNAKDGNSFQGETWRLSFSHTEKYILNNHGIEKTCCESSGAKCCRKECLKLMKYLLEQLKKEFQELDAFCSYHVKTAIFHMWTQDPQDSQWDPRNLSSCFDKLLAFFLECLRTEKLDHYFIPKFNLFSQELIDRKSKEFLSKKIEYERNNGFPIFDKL

IC50 (mouse cGAS; [1]) [µM]	inhibition at 12.5 µM (mouse cGAS; [2]) [%]	Polarization (45-bp dsDNA) [mP]	IC50 (mouse cGAS; Fig. 1e, four prioritized screening hits, confirmed with independent lots of compound, read-out: IC50) [µM]	SMILES	% intercalation at 30 µM (45-bp dsDNA) [%]	% inhibition at 12.5 µM (mouse cGAS; [2]) [%]	IC50 (mouse cGAS) [µM]
6.12	92	288	–	S=c1[nH]nc(-c2sc3ccccc3c2Cl)o1 [RU3433]	–	–	–
6.42	62	254	–	CCOC(=O)c1n[nH]c2c1C(=O)N(CC)C2=O [RU4893]	-1.4	–	–
6.49	90	255	–	O=c1[nH]n2c(=O)c3ccccc3nc2c2ccccc12 [RU5004]	-2.1	–	–
3	87	264	–	O=C(O)C1CSC(c2cc(Br)c(O)c(Br)c2)N1 (centres unmarked) [RU5512]	-6.3	–	–
7.99	69	252	–	Cc1nc2nc(C)c(Br)c(O)n2n1 [RU6753]	-0.5	–	–
1.45	90	72	–	CC(=O)[C@]1(O)Cc2c(O)c3c(c(O)c2[C@@H](O[C@H]2C[C@H](N)[C@H](O)[C@H](C)O2)C1)C(=O)c1ccccc1C3=O [RU84314]	87.2	–	–
9.11	91	263	–	N#CCC(=O)Nc1sc2c(c1C(N)=O)CCCC2 [RU93687]	-5.8	–	–
8.14	64	267	–	CC(C)OC(=O)C(C#N)=Cc1ccc([N+](=O)[O-])o1 [RU94102]	-8.1	–	–
8.66	62	266	–	N#CC1=C(N)SC(N)=C(C#N)C1c1ccc([N+](=O)[O-])cc1 [RU107796]	-7.6	–	–
5.38	72	271	1.4	O=C(CCl)Nc1nc(-c2c[nH]c3ccccc23)cs1 [RU114757]	-10.1	–	–
6.51	63	271	–	O=C1NC(=S)SC1=Cc1ccccc1F [RU116287]	-9.8	–	–
4.25	89	266	–	CCC1=NN2C(=N)/C(=C/c3ccc(O)cc3)C(=O)N=C2S1 [RU169196]	-7.5	–	–
3.34	97	262	–	CCC1=NN2C(=N)/C(=C/c3cccs3)C(=O)N=C2S1 [RU169248]	-5.7	–	–
0.25	90	251	–	Cc1ccc(C(=O)c2nc3c(n2O)CCCCC3)cc1 [RU171395]	-0.3	–	–
7.47	76	239	–	Cc1nnc(NC(=O)c2ccc(S(=O)(=O)Nc3cccc(C(F)(F)F)c3)o2)s1 [RU174368]	5.6	–	–
6.09	70	276	–	NC(=O)N1C(=O)/C(=C(\O)c2cccs2)c2cc(Cl)ccc21 [RU187170]	–	–	–
0.58	95	256	–	N#Cc1cc(I)c(O)c([N+](=O)[O-])c1 [RU187299]	-2.8	–	–
6.62	86	274	–	O=C(Nc1ncc([N+](=O)[O-])s1)c1cccs1 [RU187339]	–	–	–
9.09	71	253	–	O=C(Nc1nncs1)c1cn(-c2ccccc2Br)nn1 [RU191669]	-1.0	–	–
6.33	63	263	–	N#Cc1ccc(/C=C2\CS(=O)(=O)c3c(F)cccc3C2=O)cc1 [RU198755]	-6.2	–	–
9.69	70	274	–	O=C1CN2C(=C1c1ccccc1)NC(=O)c1sc3ccccc3c12 [RU207450]	–	–	–
4.68	67	272	–	CS(=O)(=O)c1ncc2c(n1)c(=O)c(C#N)c1[nH]c3ccccc3c(=O)n12 [RU207488]	–	–	–
4.44	91	251	–	COC(=O)C1=NN2C(=NS(=O)(=O)c3ccccc32)N1 [RU209189]	0.0	–	–
1.27	94	253	–	OCc1cn(-c2ccccc2Cl)nn1 [RU219771]	-1.3	–	–
6.76	89	270	–	O=c1cc(CCn2cccn2)nc(-c2ccc(CN3CCC[C@@H]3CO)cc2)[nH]1 [RU234543]	-9.3	–	–

SMILES	IC50 (mouse cGAS; [1]) [µM]	inhibition at 12.5 µM (mouse cGAS; [2]) [%]	Polarization (45-bp dsDNA) [mP]	IC50 (mouse cGAS; Fig. 1e, four prioritized screening hits, confirmed with independent lots of compound, read-out: IC50) [µM]	% intercalation at 30 µM (45-bp dsDNA) [%]	% inhibition at 12.5 µM (mouse cGAS; [2]) [%]	IC50 (mouse cGAS) [µM]
CC[C@@]1(O)C[C@H](O[C@H]2C[C@H](N(C)C)[C@H](O)[C@H](C)O2)c2c(cc3c(c2O)C(=O)c2c(O)cccc2C3=O)[C@H]1C(=O)OC [RU891]	1.42	98	65	–	90.6	–	–
O=C(O)COc1cc(Cl)c(Cl)cc1Cl [RU1535]	0.55	98	244	–	3.4	–	–
CCOc1ccc2nc3cc(N)ccc3c(N)c2c1 [RU1667]	1.01	–	139	–	54.5	92	–
COc1cccc2c1C(=O)c1c(O)c3c(c(O)c1C2=O)C[C@@](O)(C(=O)CO)C[C@@H]3O[C@H]1C[C@H](N)[C@H](O)[C@H](C)O1 [RU24114]	–	96	53	–	–	–	0.82
COc1cccc2c1C(=O)c1c(O)c3c(c(O)c1C2=O)C[C@@](O)(C(C)=O)C[C@@H]3OC1CC(N)C(O)C(C)O1 (some centres unmarked) [RU24146]	0.69	93	55	–	–	–	–
COc1cccc2c1C(=O)c1c(O)c3c(c(O)c1C2=O)C[C@@](O)(C(C)=O)C[C@@H]3O[C@H]1C[C@H](N)[C@H](O)[C@H](C)O1 [RU83653]	1.81	91	50	–	98.0	–	–
COc1cccc2c1C(=O)c1c(O)c3c(c(O)c1C2=O)C[C@@](O)(C(=O)CO)C[C@@H]3O[C@H]1C[C@H](N)[C@@H](O)[C@H](C)O1 [RU162145]	–	98	53	–	96.5	–	0.58
N=C(N)NN=C1C=CC(=NNC(N)=S)C=C1 [RU187428]	–	79	164	–	–	–	9.93
